The target in series [1] is Sodium channel protein type 5 subunit alpha (Homo sapiens, UniProt Q14524). Kind of series: Inhibition of Nav1.5 (unknown origin) expressed in xenopus oocytes at -80 mV holding potential by two-electrode voltage-clamp method. Type of series: cell-based. (In general: In two-electrode clamp one electrode senses voltage and the other passes current.)
Series [2] addresses Sodium channel protein type 8 subunit alpha (Homo sapiens, UniProt Q9UQD0). Kind of series: Inhibition of Nav1.6 (unknown origin).
Series [3] deals with Sodium channel protein type 2 subunit alpha (Homo sapiens, UniProt Q99250). Kind of series: Inhibition of Nav1.2 (unknown origin) expressed in xenopus oocytes at -80 mV holding potential by two-electrode voltage-clamp method. Type of series: cell-based.
Series [4] in a line: Toxicity in mouse. Type of series: organism-based. The conditions noted are these: in vivo.
Series [5] has as its target Acetylcholine receptor subunit epsilon (Homo sapiens, UniProt Q04844). Kind of series: Inhibition of nAChR epsilon (unknown origin).
For series [6], the target named is T1, Transient receptor potential cation channel subfamily V member 6 (Homo sapiens, UniProt Q9H1D0).
T1 sequence (Q9H1D0 whole entry): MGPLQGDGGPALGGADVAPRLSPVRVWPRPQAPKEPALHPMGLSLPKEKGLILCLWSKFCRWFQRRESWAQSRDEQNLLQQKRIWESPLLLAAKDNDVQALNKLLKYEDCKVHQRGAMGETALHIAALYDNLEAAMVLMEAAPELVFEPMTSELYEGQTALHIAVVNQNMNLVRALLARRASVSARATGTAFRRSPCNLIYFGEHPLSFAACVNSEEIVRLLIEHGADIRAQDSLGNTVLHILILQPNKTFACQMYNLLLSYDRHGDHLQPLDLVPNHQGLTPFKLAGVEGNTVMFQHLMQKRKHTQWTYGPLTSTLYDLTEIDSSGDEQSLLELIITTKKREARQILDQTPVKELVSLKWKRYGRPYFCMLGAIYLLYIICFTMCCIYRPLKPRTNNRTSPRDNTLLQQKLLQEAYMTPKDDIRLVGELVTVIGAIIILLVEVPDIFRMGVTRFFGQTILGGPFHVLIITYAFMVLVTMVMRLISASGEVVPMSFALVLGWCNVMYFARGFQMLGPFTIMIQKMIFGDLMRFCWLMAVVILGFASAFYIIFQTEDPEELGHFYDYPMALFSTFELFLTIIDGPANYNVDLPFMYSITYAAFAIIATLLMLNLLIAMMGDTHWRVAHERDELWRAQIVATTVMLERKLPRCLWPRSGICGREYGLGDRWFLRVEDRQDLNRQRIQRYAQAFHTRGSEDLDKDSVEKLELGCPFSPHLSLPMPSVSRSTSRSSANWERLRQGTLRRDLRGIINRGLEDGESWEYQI
Kind of series: Inhibition of TRPV6 (unknown origin) expressed in HEK293 cells by whole cell patch clamp assay. Type of series: cell-based. For orientation: In patch-clamp work, channel activity is measured electrically.

Series [7] concerns the target DPP4 (dipeptidyl peptidase 4) (Homo sapiens, UniProt P27487). Kind of series: Stability in plasma (unknown origin) assessed as DPP4-mediated drug degradation by measuring half life. Type of series: ADME.

Positions of bridges follow the written chain, without caps; N, C: chain ends. Residues, ends and D or L forms follow the SMILES beside them.

Acetylcholine receptor subunit epsilon, sequence (Q04844 whole entry): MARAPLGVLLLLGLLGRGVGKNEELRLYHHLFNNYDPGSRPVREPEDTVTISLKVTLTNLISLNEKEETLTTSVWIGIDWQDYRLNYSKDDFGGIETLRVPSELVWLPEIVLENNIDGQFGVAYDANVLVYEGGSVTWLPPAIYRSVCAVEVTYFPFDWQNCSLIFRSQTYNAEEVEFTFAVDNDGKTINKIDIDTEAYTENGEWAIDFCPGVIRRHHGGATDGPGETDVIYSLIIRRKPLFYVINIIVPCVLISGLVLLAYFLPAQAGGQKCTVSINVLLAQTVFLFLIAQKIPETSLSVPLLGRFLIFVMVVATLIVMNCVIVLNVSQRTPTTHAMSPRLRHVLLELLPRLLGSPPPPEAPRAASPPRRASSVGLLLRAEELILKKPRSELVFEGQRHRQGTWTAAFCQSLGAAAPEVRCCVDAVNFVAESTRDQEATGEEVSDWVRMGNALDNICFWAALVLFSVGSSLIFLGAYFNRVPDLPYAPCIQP
Sodium channel protein type 8 subunit alpha, sequence (Q9UQD0 whole entry): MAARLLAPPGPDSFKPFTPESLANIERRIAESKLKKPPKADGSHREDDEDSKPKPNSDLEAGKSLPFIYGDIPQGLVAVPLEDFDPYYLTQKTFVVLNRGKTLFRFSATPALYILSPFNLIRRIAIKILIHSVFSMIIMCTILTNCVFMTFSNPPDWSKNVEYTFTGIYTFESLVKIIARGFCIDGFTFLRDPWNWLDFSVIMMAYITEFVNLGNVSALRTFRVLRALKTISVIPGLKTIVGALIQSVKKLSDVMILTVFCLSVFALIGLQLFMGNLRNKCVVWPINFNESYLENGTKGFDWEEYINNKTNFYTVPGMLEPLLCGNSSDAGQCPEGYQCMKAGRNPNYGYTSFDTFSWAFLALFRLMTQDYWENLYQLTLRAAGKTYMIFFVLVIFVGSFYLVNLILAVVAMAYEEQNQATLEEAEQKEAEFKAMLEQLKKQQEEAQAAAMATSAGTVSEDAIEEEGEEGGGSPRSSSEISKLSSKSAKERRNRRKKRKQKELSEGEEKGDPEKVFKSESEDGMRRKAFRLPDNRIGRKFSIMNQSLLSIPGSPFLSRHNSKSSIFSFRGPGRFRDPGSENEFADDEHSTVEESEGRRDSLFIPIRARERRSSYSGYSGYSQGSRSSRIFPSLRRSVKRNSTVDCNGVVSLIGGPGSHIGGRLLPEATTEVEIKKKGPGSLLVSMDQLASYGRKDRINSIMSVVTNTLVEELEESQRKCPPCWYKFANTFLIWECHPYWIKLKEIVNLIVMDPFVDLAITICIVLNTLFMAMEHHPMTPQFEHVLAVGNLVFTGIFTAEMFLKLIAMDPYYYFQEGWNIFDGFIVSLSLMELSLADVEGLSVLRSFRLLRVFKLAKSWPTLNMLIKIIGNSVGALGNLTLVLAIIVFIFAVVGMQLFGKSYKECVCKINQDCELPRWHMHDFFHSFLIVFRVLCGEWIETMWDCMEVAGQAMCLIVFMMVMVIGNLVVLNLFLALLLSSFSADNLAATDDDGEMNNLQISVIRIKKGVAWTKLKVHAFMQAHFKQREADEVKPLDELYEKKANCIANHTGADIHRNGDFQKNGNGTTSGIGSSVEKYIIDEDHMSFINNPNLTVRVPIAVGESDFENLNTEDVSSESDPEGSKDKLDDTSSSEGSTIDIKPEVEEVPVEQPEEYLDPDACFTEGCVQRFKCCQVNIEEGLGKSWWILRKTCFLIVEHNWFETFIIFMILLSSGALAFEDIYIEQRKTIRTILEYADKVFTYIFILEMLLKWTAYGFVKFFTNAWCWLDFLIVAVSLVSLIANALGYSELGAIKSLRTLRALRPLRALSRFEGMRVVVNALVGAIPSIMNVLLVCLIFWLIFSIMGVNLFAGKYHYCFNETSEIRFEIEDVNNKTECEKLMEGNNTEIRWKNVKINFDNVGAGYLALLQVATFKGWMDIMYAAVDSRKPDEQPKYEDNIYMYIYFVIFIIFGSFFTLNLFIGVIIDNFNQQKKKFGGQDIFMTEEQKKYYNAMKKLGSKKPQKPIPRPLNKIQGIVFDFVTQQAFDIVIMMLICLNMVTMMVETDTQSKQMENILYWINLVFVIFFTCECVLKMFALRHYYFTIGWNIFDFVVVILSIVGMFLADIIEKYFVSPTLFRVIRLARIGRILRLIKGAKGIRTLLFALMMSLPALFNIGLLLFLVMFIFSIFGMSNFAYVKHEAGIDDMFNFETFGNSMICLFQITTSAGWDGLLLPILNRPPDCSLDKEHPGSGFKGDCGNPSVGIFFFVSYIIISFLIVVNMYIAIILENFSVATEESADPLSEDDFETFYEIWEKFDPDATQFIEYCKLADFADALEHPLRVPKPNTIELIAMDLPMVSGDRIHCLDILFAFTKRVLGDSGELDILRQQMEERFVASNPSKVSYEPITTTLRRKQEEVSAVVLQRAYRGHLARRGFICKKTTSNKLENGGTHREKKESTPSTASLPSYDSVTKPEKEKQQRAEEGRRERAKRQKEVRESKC
DPP4 (dipeptidyl peptidase 4), sequence (P27487 whole entry): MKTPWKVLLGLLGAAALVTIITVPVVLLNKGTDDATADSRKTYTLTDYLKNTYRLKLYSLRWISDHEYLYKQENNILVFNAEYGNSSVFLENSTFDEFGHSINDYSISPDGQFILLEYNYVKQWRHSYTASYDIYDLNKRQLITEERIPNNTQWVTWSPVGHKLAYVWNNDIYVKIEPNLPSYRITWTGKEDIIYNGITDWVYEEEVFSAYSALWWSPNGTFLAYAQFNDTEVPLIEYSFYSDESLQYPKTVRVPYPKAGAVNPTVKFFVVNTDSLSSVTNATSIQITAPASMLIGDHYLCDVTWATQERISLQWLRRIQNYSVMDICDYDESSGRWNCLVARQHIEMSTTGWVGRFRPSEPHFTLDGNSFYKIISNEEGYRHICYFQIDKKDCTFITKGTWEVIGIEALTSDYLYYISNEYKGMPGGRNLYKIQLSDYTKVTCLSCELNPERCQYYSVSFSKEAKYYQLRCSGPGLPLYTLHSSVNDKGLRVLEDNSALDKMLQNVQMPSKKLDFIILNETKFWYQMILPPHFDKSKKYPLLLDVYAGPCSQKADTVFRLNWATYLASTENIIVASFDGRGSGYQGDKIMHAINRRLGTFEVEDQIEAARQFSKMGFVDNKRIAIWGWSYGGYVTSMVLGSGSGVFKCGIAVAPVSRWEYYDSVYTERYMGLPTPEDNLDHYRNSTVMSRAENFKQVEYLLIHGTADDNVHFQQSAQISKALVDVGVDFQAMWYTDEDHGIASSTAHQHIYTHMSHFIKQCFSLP

With `CSCC[C@@H]1NC(=O)CNC(=O)[C@H](CCC(=O)O)NC(=O)[C@@H]2CSSC[C@H](NC(=O)[C@@H](N)Cc3ccc(O)cc3)C(=O)N[C@@H](CCC(N)=O)C(=O)N[C@@H](CCCCN)C(=O)N[C@@H](Cc3c[nH]c4ccccc34)C(=O)N[C@@H](CCSC)C(=O)N[C@@H](Cc3c[nH]c4ccccc34)C(=O)N[C@@H]([C@@H](C)O)C(=O)N[C@H]3CSSC[C@H](NC(=O)[C@H](C(C)C)NC1=O)C(=O)N[C@@H](CCCNC(=N)N)C(=O)N[C@@H](CC(C)C)C(=O)N[C@@H](Cc1c[nH]c4ccccc14)C(=O)N[C@H](C(=O)N[C@@H](CCCCN)C(=O)N[C@@H](CCCCN)C(=O)N[C@@H](CCCCN)C(=O)N[C@@H](CC(C)C)C(=O)N[C@@H](Cc1c[nH]c4ccccc14)C(=O)O)CSSC[C@H](NC(=O)[C@H](CCCCN)NC(=O)[C@H](CCCNC(=N)N)NC(=O)[C@H](CCC(=O)O)NC(=O)[C@H](CO)NC(=O)[C@H](CC(=O)O)NC3=O)C(=O)N2`, the IC50 (usually the concentration that inhibits the measured activity by half) was determined as 0.079 µM in series [1], 0.026 µM in series [2] and 0.041 µM in series [3]. Take `CC[C@H](C)[C@H](NC(=O)[C@H](Cc1ccc(O)cc1)NC(=O)[C@H](Cc1cnc[nH]1)NC(=O)[C@@H]1CSSC[C@H](NC(=O)[C@@H]2CCCN2C(=O)[C@H](CCCNC(=N)N)NC(=O)[C@H](CC(C)C)NC(=O)[C@H](CC(=O)O)NC(=O)[C@@H]2CCCN2C(=O)[C@H](CCCCN)NC(=O)CNC(=O)CN)C(=O)N[C@@H](Cc2cnc[nH]2)C(=O)N2CCC[C@H]2C(=O)N2CCC[C@H]2C(=O)N1)C(=O)N1CCC[C@H]1C(=O)N[C@@H](CCCNC(=N)N)C(=O)N1CCC[C@H]1C(=O)N[C@@H](CCCCN)C(=O)N1CCC[C@H]1C(=O)N[C@@H](CCCNC(=N)N)C(=O)O` (H-GGKPDLRPCHPPCHYIPRPKPR-OH; disulfide 9-13): the median lethal dose (LD50) – broadly, the dose at which mortality reaches 50% – in series [4] was 0.33 mg/kg. In series [5], this molecule gave an IC50 of 0.05 µM. H-KEFLHPSKVDLPR-OH [SOR-C13]: in series [6], half-maximal inhibition (IC50) required 0.014 µM. Take “H-SDGTFTSDLSKQMEEEAVRLFIEWLKNGGPSGAPPPS-NH2”: in series [7], the half-life (as a rule, the time in which the quantity being followed falls by half) stood at 2 min.

Source of the values: ChEMBL document CHEMBL4219045 (Bioorg Med Chem, 2018).
